Assay results reported in patent publication US10406264B2, “Peptide having titanium-binding ability” (NANO INTELLIGENT BIOMEDICAL ENGINEERING CORPORATION. CO. LTD, priority 2016, dated 2019).
Where a SMILES comes first, the peptide text is derived from it. Where no end group is shown, it is not given here. [ ]: non-standard residue; d: D form. Ahx = NCCCCCC(=O)O

Key:
[1] = system: PDLSC cells; test: cell viability test (trypan blue count) on peptide-coated titanium discs; format: cell-based; conditions: for cytotoxicity for cells: administered alone, 3 days of incubation, FIG. 5; for Total cell number (viable cells), Average: average of #1 and #2; for Total cell number (viable cells), Average / Total cell number (viable cells), #1 / Total cell number (viable cells), #2: PDLSC, 3 days culture, disc coated per Table 2 (peptides 100 μM, BMP-2 100 ng/ml); for Total cell number (viable cells), #1: replicate #1; for Total cell number (viable cells), #2: replicate #2
Description: In order to evaluate whether or not a titanium binding peptide-linked osteogenic peptide (SEQ ID NO: 3 or SEQ ID NO: 4) and a titanium-binding peptide (SEQ ID NO: 1) are cytotoxic when these peptides are administered alone, a cell viability test was performed.
Specifically, one titanium disc was placed in each well of a 24-well low-attachment polystyrene plate and blocked with a blocking solution (0.1 M NaHCO3 (pH 8.6), 5 mg/ml BSA, 0.02% NaN3 (optional), filter sterilize) for at least 1 hour. Next, the blocking solution was discarded, and each well was washed three times or more with a washing solution (DPBS: Dulbeccos phosphate buffered saline), after which 50 μl of the solution shown in Table 2 below was dispensed and coated on the surface of each titanium disc. Each well was incubated at room temperature for 15 hours, and then washed three times or more with a washing solution (DPBS). Next, 3×10^4 PDLSC cells suspended in 50 μl of a medium (Minimum Essential Medium Eagle Alpha Modifications, Hyclone, USA) containing 10% FBS (Fetal Bovine Serum) and 1% antibiotic-antimycotic solution (Thermo Fisher Scientific, USA) were dispensed per titanium disc. […] Next, the cells were detached, stained with trypan blue, and counted with a hematocytometer to determine the number of viable cells.

[2] = binding assay using an avidin-biotin complex (binding affinity for titanium); conditions: biotin-labeled peptide 100 nM to 1 μM, 15 hours at room temperature, FIG. 1
Description: In order to examine the binding affinities of the peptides synthesized in Example 1 and Comparative Examples 1 and 2 for titanium, the peptides were labeled with biotin. Each of the peptides was biotinylated using EZ-Link Sulfo-NHS-Biotin (Pierce Biotechnology, USA) according to the manufacturer's instruction, and unbound byproducts were removed by ultrafiltration that is a membrane separation method based on a pressure difference. The molecular weights of the synthesized products were measured by mass spectrometry. The synthesized products were analyzed and purified by reverse phase liquid chromatography. For analysis, a C18 column having a diameter of 4.6 mm was used, and 0.1% TFA/H2O and 0.092% TFA/acetonitrile were flushed onto the column at a rate of 1 ml/min with a gradient of 0-60% for 30 minutes. The wavelength of the UV detector used was 220 nm. For purification, a column having a diameter of 2.2 cm was used, and a flow rate of 20 ml/min and the solvent and detection wavelength as described above were used. Only the biotin-labeled peptide fraction was collected, and concentrated using a rotary evaporator to remove the solvent, followed by freeze-drying.
The binding affinity of the titanium-binding peptide for titanium was measured by performing a binding assay using an avidin-biotin complex. Specifically, one titanium disc was placed in each well of a 24-well polystyrene plate, and then blocked with a blocking buffer (0.1 M NaHCO3 (pH 8.6), 5 mg/ml BSA, 0.02% NaN3 (optional), filter sterilize) for at least one hour. […] Each titanium disc was treated with 50 μl of 1% SDS solution to stop the reaction, and the absorbance at 405 nm was measured.

[3] = luminescent image analysis with enhanced chemiluminescence (ECL) solution; format: binding; conditions: ECL solution as substrate, FIG. 2
Description: Specifically, washing was performed at least three times with suitable washing solution to remove 2,2′-AZINO-BIS used as a substrate in the above procedure, and then analysis was performed with a luminescent image analyzer using enhanced chemiluminescence (ECL) solution.

[4] = maximum binding amount of titanium-binding peptide, avidin-biotin binding assay
Description: To examine the maximum binding amount of the titanium-binding peptide TBP (SEQ ID NO: 1) per unit area of the titanium disc surface, a binding assay using an avidin-biotin complex was performed. Specifically, one titanium disc was placed in each well of a 24-well polystyrene plate, and then blocked with a blocking buffer (0.1 M NaHCO3 (pH 8.6), 5 mg/ml BSA, 0.02% NaN3 (optional), filter sterilize) for at least one hour. Next, the blocking buffer was discarded, and each titanium disc was strongly washed six times or more with a washing buffer (TBS+0.1% [v/v] Tween-20), after which 50 μl of each of the titanium-binding peptide TBP (SEQ ID NO: 1) of Example 1 and the peptides TBP-C(SEQ ID NO: 2) and ZBP (SEQ ID NO: 5, Korean Patent Application No. 10-2015-0048441) of Comparative Examples 1 and 2, which were biotin-labeled, synthesized, separated and purified in Example 3-1, was dispensed to the surface of each titanium disc at a concentration ranging from 100 nM to 40 mM. Each titanium disc was incubated at room temperature for 15 hours, and then washed strongly with a washing buffer, and 50 μl of a 1:500 dilution of ExtrAvidin-peroxidase (Cat. #E2886, Sigma-Aldrich, USA) in a blocking buffer was dispensed to the surface of each titanium disc. Each titanium disc was incubated at room temperature for 1 hour, and then washed strongly with a washing buffer, after which 50 μl of a substrate solution (2,2′-AZINO-BIS, Cat. #A3219, Sigma-Aldrich, USA) was dispensed to the surface of each titanium disc and allowed to react at room temperature for 20 minutes so as to develop color. Each titanium disc was treated with 50 μl of 1% SDS solution to stop the reaction, and the absorbance at 405 nm was measured.

[5] = system: periodontal ligament stem cells (PDLSCs); test: mineralization of periodontal ligament stem cells (Alizarin red S) on coated titanium discs; format: cell-based; conditions: day 18; significant p<0.05, not significant p>0.05
Description: Specifically, one titanium disc was placed in each well of a 24-well low-attachment polystyrene plate and blocked with a blocking solution (0.1 M NaHCO3 (pH 8.6), 5 mg/ml BSA, 0.02% NaN3 (optional), filter sterilize) for at least 1 hour. […] Each well was incubated at room temperature for 15 hours, and then washed three times or more with a washing solution (DPBS). Next, 3×10^4 PDLSC cells suspended in 50 μl of a medium (Minimum Essential Medium Eagle Alpha Modifications, Hyclone, USA) containing 10% FBS (Fetal Bovine Serum) and 1% antibiotic-antimycotic solution (Thermo Fisher Scientific, USA) were dispensed per titanium disc.

Compound | cytotoxicity for cells [1] | Total cell number (viable cells), Average [1] | Total cell number (viable cells), #1 [1] | Total cell number (viable cells), #2 [1] | binding to the titanium disc surface (absorbance at 405 nm) [2] | binding to titanium disc detected by luminescent image analyzer [3] | concentration showing the maximum absorbance value ([4]; 100 nM to 40 mM tested, absorbance at 405 nm, FIGS. 3 and 4) [µM] | maximum amount of titanium-binding peptide bound to the surface of one titanium disc ([4]; back-calculation from molecular weight and dispensing amount, disc diameter 10 mm) [µg] | amount of titanium-binding peptide fixed per mm^2 of the titanium disc surface ([4]; disc diameter 10 mm) | mineralization (absorbance at 570 nm), difference versus NT (negative control) group [5]
CC[C@H](C)[C@H](NC(=O)[C@H](CC(=O)O)NC(=O)[C@@H]1CCCN1C(=O)[C@H](CCCNC(=N)N)NC(=O)[C@H](CCCNC(=N)N)NC(=O)[C@H](Cc1ccccc1)NC(=O)[C@H](CCCCN)NC(=O)[C@H](CCCCN)NC(=O)[C@H](CO)NC(=O)[C@H](CCCCN)NC(=O)[C@H](CO)NC(=O)[C@H](CCCNC(=N)N)NC(=O)[C@H](CC(C)C)NC(=O)CNC(=O)CCCCCNC(=O)[C@H](Cc1c[nH]cn1)NC(=O)[C@@H](NC(=O)[C@@H](NC(=O)[C@@H]1CCCN1C(=O)[C@H](CCCNC(=N)N)NC(=O)[C@H](Cc1c[nH]cn1)NC(=O)CNC(=O)[C@@H](NC(=O)[C@H](Cc1ccc(O)cc1)NC(=O)[C@H](CC(N)=O)NC(=O)[C@H](CC(C)C)NC(=O)[C@@H](N)CO)[C@@H](C)O)C(C)C)C(C)C)C(=O)N[C@@H](CCC(N)=O)C(=O)N[C@@H](Cc1ccc(O)cc1)C(=O)N1CCC[C@H]1C(=O)N[C@@H](CC(=O)O)C(=O)N[C@@H](C)C(N)=O [TBP-Linker-osteogenic peptide] (H-SLNYTGHRPVVH[Ahx]GLRSKSKKFRRPDIQYPDA-NH2) | not cytotoxic | 6.8 × 10^4 | 6.0 × 10^4 | 7.5 × 10^4 |  |  |  |  |  | 
GLRSKSKKFRRPDIQYPDA-NH2 [Osteogenic peptide, reference compound] |  | 7.0 × 10^4 | 7.5 × 10^4 | 6.5 × 10^4 |  |  |  |  |  | 
SLNATGARAVVA [TBP-C] |  |  |  |  | do not bind to the titanium disc surface | hardly bind to a titanium disc |  |  |  | 
SLNYTGHRPVVH-NH2 [TBP] | not cytotoxic | 7.0 × 10^4 | 7.0 × 10^4 | 7.0 × 10^4 | binds to the titanium disc surface in a concentration-dependent manner | binds to a titanium disc | 100 | 8.025 | about 0.1022 μg per mm^2 | no statistically significant difference
SLNYTGHRPVVHGLRSKSKKFRRPDIQYPDA-NH2 [TBP-osteogenic peptide] | not cytotoxic | 7.8 × 10^4 | 7.5 × 10^4 | 8.0 × 10^4 |  |  |  |  |  | 
VSPFGTKWSPFV (Zirconia Binding Peptide) [ZBP] |  |  |  |  | do not bind to the titanium disc surface | hardly bind to a titanium disc |  |  |  | 
